Assay results from ChEMBL document CHEMBL3885881, “DrugMatrix”.

Organism: Rattus norvegicus
Experiment: DrugMatrix - Regimen: Daily Repeat
Format: toxicity, organism-based, Sprague-Dawley
Parameters: regimen Daily Repeat, gender Male, age 6-8 weeks
Details: in vivo, po, route oral GAVAGE, […]; for ABSOLUTE BASOPHIL / ABSOLUTE EOSINOPHIL / ABSOLUTE LYMPHOCYTE / ABSOLUTE MONOCYTE / BASOPHIL / EOSINOPHIL / ERYTHROCYTE COUNT / HEMATOCRIT / HEMOGLOBIN / LEUKOCYTE COUNT / LYMPHOCYTE / MEAN CORPUSCULAR HEMOGLOBIN / MEAN CORPUSCULAR HEMOGLOBIN CONCENTRATION / MEAN CORPUSCULAR VOLUME / MONOCYTE / NEUTROPHIL / PLATELET COUNT: tissue Blood
[1] = 0 mg/kg, 72 h, dose level Control, time 3 day
[2] = 0 mg/kg, 72 h, tissue Plasma, dose level Control, time 3 day
[3] = 0 mg/kg, 120 h, dose level Control, time 5 day
[4] = 0 mg/kg, 120 h, tissue Plasma, dose level Control, time 5 day
[5] = 0 mg/kg, dose level Control, time 14 day
[6] = 0 mg/kg, tissue Plasma, dose level Control, time 14 day
[7] = 40 mg/kg, 72 h, dose level Low, time 3 day
[8] = 40 mg/kg, 72 h, tissue Plasma, dose level Low, time 3 day

**Q.** What does the source list for C=CCN [ALLYLAMINE]?
**A.** ABSOLUTE BASOPHIL [1]: 50 cells/µL; ABSOLUTE EOSINOPHIL [1]: 43.3 cells/µL; ABSOLUTE LYMPHOCYTE [1]: 9670 cells/µL; ABSOLUTE MONOCYTE [1]: 210 cells/µL; BASOPHIL [1]: 0.4%; EOSINOPHIL [1]: 0.37%; ERYTHROCYTE COUNT [1]: 6.82 x10E6/uL; HEMATOCRIT [1]: 46.77%; HEMOGLOBIN [1]: 14.53 G/DL; LEUKOCYTE COUNT [1]: 11.77 x10E3/uL; LYMPHOCYTE [1]: 82.1%; MEAN CORPUSCULAR HEMOGLOBIN [1]: 21.33 pg; MEAN CORPUSCULAR HEMOGLOBIN CONCENTRATION [1]: 31.13 G/DL; MEAN CORPUSCULAR VOLUME [1]: 68.57 fL; MONOCYTE [1]: 1.8%; NEUTROPHIL [1]: 14.83%; PLATELET COUNT [1]: 1303.33 x10E3/uL; ALANINE AMINOTRANSFERASE [2]: 46.67 u/L; ALBUMIN [2]: 4.17 G/DL; ALKALINE PHOSPHATASE [2]: 530 u/L; ASPARTATE AMINOTRANSFERASE [2]: 81.33 u/L; BLOOD UREA NITROGEN [2]: 17.67 mg/dL; CARBON DIOXIDE [2]: 41.67 mmol/L; CHLORIDE [2]: 102 MEQ/L; CHOLESTEROL [2]: 70.33 mg/dL; CREATINE PHOSPHOKINASE [2]: 372.67 u/L; CREATININE [2]: 0.5 mg/dL; GLUCOSE [2]: 184 mg/dL; LIPASE [2]: 13.33 u/L; PHOSPHORUS [2]: 10.2 mg/dL; POTASSIUM [2]: 6.13 MEQ/L; SODIUM [2]: 145 MEQ/L; TOTAL BILIRUBIN [2]: 0.43 mg/dL; TOTAL PROTEIN [2]: 6.7 G/DL; URIC ACID [2]: 0.83 mg/dL; ABSOLUTE BASOPHIL [3]: 33.3 cells/µL; ABSOLUTE EOSINOPHIL [3]: 56.7 cells/µL; ABSOLUTE LYMPHOCYTE [3]: 9220 cells/µL; ABSOLUTE MONOCYTE [3]: 230 cells/µL; BASOPHIL [3]: 0.3%; EOSINOPHIL [3]: 0.5%; ERYTHROCYTE COUNT [3]: 6.62 x10E6/uL; HEMATOCRIT [3]: 46.43%; HEMOGLOBIN [3]: 14.3 G/DL; LEUKOCYTE COUNT [3]: 10.96 x10E3/uL; LYMPHOCYTE [3]: 83.83%; MEAN CORPUSCULAR HEMOGLOBIN [3]: 21.57 pg; MEAN CORPUSCULAR HEMOGLOBIN CONCENTRATION [3]: 30.77 G/DL; MEAN CORPUSCULAR VOLUME [3]: 70.13 fL; MONOCYTE [3]: 2.1%; NEUTROPHIL [3]: 12.53%; PLATELET COUNT [3]: 1056.67 x10E3/uL; ALANINE AMINOTRANSFERASE [4]: 41.33 u/L; ALBUMIN [4]: 4.07 G/DL; ALKALINE PHOSPHATASE [4]: 603.33 u/L; ASPARTATE AMINOTRANSFERASE [4]: 80 u/L; BLOOD UREA NITROGEN [4]: 14.67 mg/dL; CARBON DIOXIDE [4]: 43 mmol/L; CHLORIDE [4]: 104 MEQ/L; CHOLESTEROL [4]: 88.33 mg/dL; CREATINE PHOSPHOKINASE [4]: 391.67 u/L; CREATININE [4]: 0.47 mg/dL; GLUCOSE [4]: 156 mg/dL; LIPASE [4]: 10.67 u/L; PHOSPHORUS [4]: 9.03 mg/dL; POTASSIUM [4]: 6.1 MEQ/L; SODIUM [4]: 145.67 MEQ/L; TOTAL BILIRUBIN [4]: 0.37 mg/dL; TOTAL PROTEIN [4]: 6.53 G/DL; URIC ACID [4]: 0.5 mg/dL; ABSOLUTE BASOPHIL [5]: 73.3 cells/µL; ABSOLUTE EOSINOPHIL [5]: 60 cells/µL; ABSOLUTE LYMPHOCYTE [5]: 12200 cells/µL; ABSOLUTE MONOCYTE [5]: 250 cells/µL; BASOPHIL [5]: 0.5%; EOSINOPHIL [5]: 0.37%; ERYTHROCYTE COUNT [5]: 7.33 x10E6/uL; HEMATOCRIT [5]: 44.3%; HEMOGLOBIN [5]: 14.77 G/DL; LEUKOCYTE COUNT [5]: 14.86 x10E3/uL; LYMPHOCYTE [5]: 81.87%; MEAN CORPUSCULAR HEMOGLOBIN [5]: 20.2 pg; MEAN CORPUSCULAR HEMOGLOBIN CONCENTRATION [5]: 33.33 G/DL; MEAN CORPUSCULAR VOLUME [5]: 60.57 fL; MONOCYTE [5]: 1.63%; NEUTROPHIL [5]: 14.93%; PLATELET COUNT [5]: 1101.67 x10E3/uL; ALANINE AMINOTRANSFERASE [6]: 31.67 u/L; ALBUMIN [6]: 3.83 G/DL; ALKALINE PHOSPHATASE [6]: 430.67 u/L; ASPARTATE AMINOTRANSFERASE [6]: 87 u/L; BLOOD UREA NITROGEN [6]: 14.33 mg/dL; CARBON DIOXIDE [6]: 39 mmol/L; CHLORIDE [6]: 104 MEQ/L; CHOLESTEROL [6]: 66 mg/dL; CREATINE PHOSPHOKINASE [6]: 441.67 u/L; CREATININE [6]: 0.7 mg/dL; GLUCOSE [6]: 125.67 mg/dL; LACTATE DEHYDROGENASE [6]: 397.67 u/L; LIPASE [6]: 12.33 u/L; PHOSPHORUS [6]: 9.87 mg/dL; POTASSIUM [6]: 5.93 MEQ/L; SODIUM [6]: 145 MEQ/L; TOTAL BILIRUBIN [6]: 0.37 mg/dL; TOTAL PROTEIN [6]: 6.27 G/DL; URIC ACID [6]: 0.67 mg/dL; ABSOLUTE BASOPHIL [7]: 40 cells/µL; ABSOLUTE EOSINOPHIL [7]: 60 cells/µL; ABSOLUTE LYMPHOCYTE [7]: 9180 cells/µL; ABSOLUTE MONOCYTE [7]: 300 cells/µL; BASOPHIL [7]: 0.33%; EOSINOPHIL [7]: 0.53%; ERYTHROCYTE COUNT [7]: 7.09 x10E6/uL; HEMATOCRIT [7]: 45.93%; HEMOGLOBIN [7]: 14.27 G/DL; LEUKOCYTE COUNT [7]: 11.66 x10E3/uL; LYMPHOCYTE [7]: 78.7%; MEAN CORPUSCULAR HEMOGLOBIN [7]: 20.07 pg; MEAN CORPUSCULAR HEMOGLOBIN CONCENTRATION [7]: 31 G/DL; MEAN CORPUSCULAR VOLUME [7]: 64.77 fL; MONOCYTE [7]: 2.47%; NEUTROPHIL [7]: 17.23%; PLATELET COUNT [7]: 1151.67 x10E3/uL; ALANINE AMINOTRANSFERASE [8]: 38 u/L; ALBUMIN [8]: 3.8 G/DL; ALKALINE PHOSPHATASE [8]: 546.67 u/L; ASPARTATE AMINOTRANSFERASE [8]: 81.67 u/L; BLOOD UREA NITROGEN [8]: 16.67 mg/dL; CARBON DIOXIDE [8]: 38.67 mmol/L; CHLORIDE [8]: 105.67 MEQ/L; CHOLESTEROL [8]: 70.67 mg/dL; CREATINE PHOSPHOKINASE [8]: 634.67 u/L; CREATININE [8]: 0.6 mg/dL; GLUCOSE [8]: 204.33 mg/dL; LIPASE [8]: 283.33 u/L; PHOSPHORUS [8]: 9.93 mg/dL; POTASSIUM [8]: 6.43 MEQ/L; SODIUM [8]: 146 MEQ/L
